Results as given in publication PMC4105567, “Aurora Kinases as Druggable Targets in Pediatric Leukemia: Heterogeneity in Target Modulation Activities and Cytotoxicity by Diverse Novel Therapeutic Agents” (PLoS ONE, 2014).
Where two headings read alike, the source gives them in different places.

Tests used:
[1] = test system: CEM T-ALL cell line; assay: Cytotoxicity assay, CEM; assay type: cell-based, human; settings: four days in culture, Alamar blue assay or automated microscopy, ± SD, three experiments
Procedure: Cell lines were cultured in Opti-MEM medium (Gibco, Life Technologies Corporation, Burlington, Ontario) supplemented with 10% heat inactivated fetal bovine serum (FBS) (Gibco), 100 units/ml penicillin and 100 units/ml streptomycin (Gibco) and 0.05 mM 2-mercaptoethanol (Sigma-Aldrich, Oakville, Ontario) in T25 flasks (Nalge Nunc, Rochester, New York) or T75 flasks (Corning Incorporated, Corning, New York). All cell cultures were maintained at 37°C in a humidified incubator with 5% CO2.
For cytotoxicity profiling of Aurora kinase inhibitors against leukemia cell lines, inhibitors or vehicle control (DMSO, Sigma-Aldrich) were diluted in 100 µl of Opti-MEM per well in 96 well plates (Grenier Bio-One, Monroe, North Carolina) in triplicate at final concentrations ranging from 1×10^−6 to 10 µM. 1×10^4 cells per well were seeded and plates were incubated for 4 days. Following incubation for 4 days, cell survival was quantified by Alamar blue assay (Invitrogen) or automated inverted microscopy using the Celigo Cell Cytometer (Cyntellect, San Diego, California). […] During this period of incubation, the absorbance at 570–620 nm was measured (Opsys MR Plate Reader, Dynex Technologies, Chantilly, Virginia) at various time points, depending on the cell line or sample. Percent survival was calculated by comparing the absorbance ratio of the test well to the control well multiplied by 100%, as indicated in the following formula: […]
For automated inverted microscopy, the number of cells in each well was determined using the direct cell counting application as described previously. Briefly, following adjustment of image acquisition settings for bright-field imaging, the wells containing cells and appropriate dilutions of inhibitors were individually scanned. Based on these images, analysis parameters, including intensity threshold and cell diameter, were modified for optimal inclusion of viable cells in treated and control wells. These parameters were applied for subsequent replicates involving the same leukemia cell line or sample. The percent survival was then calculated as a ratio of the number of cells in treated wells to the number of cells in control wells multiplied by 100%. Given that Aurora kinase inhibitors interfere with cytokinesis, cells that are committed to death may still contain enlarging but intact cytoplasmic content before the eventual loss of cytoplasmic membrane integrity. The accuracy of Alamar blue assay may be, in theory, affected by the timing of these events.

[2] = test system: Molt-3 T-ALL cell line; assay: Cytotoxicity assay, Molt-3; assay type: cell-based, human; settings: T-ALL cell line Molt-3, four days in culture, Alamar blue assay or automated microscopy, ± SD, three experiments
How it was run: (§1)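 Cells (1×10^4/well) exposed to inhibitor, 1×10^−6 to 10 µM final, in triplicate for 4 days in Opti-MEM with 10% FBS at 37°C. Survival read by Alamar blue absorbance (570–620 nm) or bright-field direct cell counting, expressed as percent of vehicle (DMSO) control.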

[3] = test system: Aurora-B; design: method as in earlier work; settings: literature values; ref [10],[22],[27],[40],[44]–[64] as listed per inhibitor in Table 1; read-out: Targets (IC50 Value): Aurora-B; cited from earlier work
[4] = test system: Normal Lymphocytes; assay: Cytotoxicity assay, normal lymphocytes; assay type: cell-based, human; settings: normal lymphocytes (control for non-leukemia cytotoxicity), four days in culture, ± SD, three experiments
[5] = test system: B1 B-ALL cell line; assay: Cytotoxicity assay, B1; assay type: cell-based, human; settings: four days in culture, Alamar blue assay or automated microscopy, ± SD, three experiments
How it was run: (§2)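 Percent survival versus DMSO control after 4-day inhibitor exposure (1×10^−6 to 10 µM final), based on Alamar blue absorbance or automated microscopy cell counts.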

[6] = test system: NB4 APML cell line; assay: Cytotoxicity assay, NB4; assay type: cell-based, human; settings: four days in culture, Alamar blue assay or automated microscopy, ± SD, three experiments
How it was run: as §1

[7] = test system: Patient #5 ALL/AML primary leukemia cells; assay: Cytotoxicity assay, primary sample Patient #5; assay type: cell-based, human; settings: primary sample, four days in culture, Alamar blue assay or automated microscopy, one complete study, read-out: IC50, Patient #5 ALL/AML
How it was run: (§3)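 Ficoll-isolated primary leukemic white cells (1×10^4 per well) in Opti-MEM exposed in triplicate to Aurora kinase inhibitors at 1×10^−6 to 10 µM or DMSO for 4 days. Survival measured by Alamar blue absorbance (570–620 nm) or bright-field direct cell counting, as percent of vehicle control.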

[8] = test system: HL-60 APML cell line; assay: Cytotoxicity assay, HL-60; assay type: cell-based, human; settings: APML cell line HL-60, four days in culture, Alamar blue assay or automated microscopy, ± SD, three experiments
How it was run: as §1

[9] = test system: MV4-11 AML cell line; assay: Cytotoxicity assay, MV4-11; assay type: cell-based, human; settings: AML cell line MV4-11, four days in culture, Alamar blue assay or automated microscopy, ± SD, three experiments
How it was run: as §2

[10] = test system: Molm13 AML cell line; assay: Cytotoxicity assay, Molm13; assay type: cell-based, human; settings: four days in culture, Alamar blue assay or automated microscopy, ± SD, three experiments
How it was run: as §1

[11] = test system: Bone Marrow Stroma; assay: Cytotoxicity assay, bone marrow stroma; assay type: cell-based, human; settings: bone marrow stroma (control for non-leukemia cytotoxicity), four days in culture, ± SD, three experiments
[12] = test system: Patient #2 relapsed AML primary leukemia cells; assay: Cytotoxicity assay, primary sample Patient #2; assay type: cell-based, human; settings: four days in culture, Alamar blue assay or automated microscopy, one complete study
How it was run: as §3

[13] = test system: normal cells versus leukemia cell lines; assay: Comparison of cytotoxicity IC50 values, normal cells versus leukemia cell lines; assay type: cell-based, human; settings: normal lymphocytes and bone marrow stroma versus leukemia cell lines of Table 2
[14] = test system: Nalm6 B-ALL cell line; assay: Cytotoxicity assay, Nalm6; assay type: cell-based, human; settings: four days in culture, Alamar blue assay or automated microscopy, ± SD, three experiments
How it was run: as §2

[15] = test system: UOCB1 B-ALL cell line; assay: Cytotoxicity assay, UOCB1; assay type: cell-based, human; settings: four days in culture, Alamar blue assay or automated microscopy, ± SD, three experiments
How it was run: as §1

[16] = test system: KOPN8 B-ALL cell line; assay: Cytotoxicity assay, KOPN8; assay type: cell-based, human; settings: four days in culture, Alamar blue assay or automated microscopy, ± SD, three experiments
How it was run: as §1

## CCS(=O)(=O)Nc1ccc2c(c1)/C(=C(/Nc1ccc(CN3CCCCC3)cc1)c1ccccc1)C(=O)N2 [Hesperadin]
[1]; Homo sapiens, 96 h
  IC50: < 0.001 nM
[2]; Homo sapiens, 96 h
  IC50: < 0.001 nM
[3]
  IC50: 250 nM
[4]; Homo sapiens, Lymphocyte, 96 h
  IC50: 2000 ± 1000 nM
[5]; Homo sapiens, 96 h
  IC50: 0.007 nM
[6]; Homo sapiens, 96 h
  IC50: 4 ± 1 nM
[7]; Homo sapiens, 96 h
  IC50: 0.01 nM
[8]; Homo sapiens, 96 h
  IC50: 6 ± 3 nM
[9]; Homo sapiens, 96 h
  IC50: 0.005 nM
[10]; Homo sapiens, MOLM-13, 96 h
  IC50: 0.3 nM
[11]; Homo sapiens, 96 h
  IC50: 2000 ± 900 nM
[12]; Homo sapiens, 96 h
  IC50: 0.3 nM
[13]
  IC50 values for the normal cells compared with IC50 values for the leukemia cell lines (potential therapeutic window): higher than the IC50 values for the leukemia cell lines
[14]; Homo sapiens, NALM-6, 96 h
  IC50: 0.004 nM
[15]; Homo sapiens, UoC-B1, 96 h
  IC50: < 0.001 nM
[16]; Homo sapiens, KOPN-8, 96 h
  IC50: 0.1 nM

## CCN1CCN(C(=O)Cc2ccc(Nc3ncc(F)c(Nc4ccc(C(=O)Nc5ccccc5Cl)cc4)n3)cc2)CC1 [Aurora A Inhibitor I]
[1]
  IC50: 300 ± 200 nM
[2]
  IC50: 300 ± 200 nM
[3]
  IC50: 3400 nM
[4]
  IC50: 3000 ± 500 nM
[5]
  IC50: 700 ± 100 nM
[6]
  IC50: 700 ± 50 nM
[7]
  IC50: 6 nM
[8]
  IC50: 2000 ± 1000 nM
[9]
  IC50: 400 ± 100 nM
[10]
  IC50: 2000 ± 1000 nM
[11]
  IC50: 4000 ± 500 nM
[12]
  IC50: 1000 nM
[13]
  IC50 values for the normal cells compared with IC50 values for the leukemia cell lines (potential therapeutic window): lower than the IC50 values for the normal cells, but not as pronounced
[14]
  IC50: 400 ± 80 nM
[15]
  IC50: 20 ± 9 nM
[16]
  IC50: 800 ± 50 nM

## O=C(Nc1c[nH]nc1-c1nc2ccc(CN3CCOCC3)cc2[nH]1)NC1CC1 [AT9283]
[1]; Homo sapiens, 96 h
  IC50: 0.7 nM
[2]; Homo sapiens, 96 h
  IC50: 0.4 nM
[3]
  IC50: 3 nM
[4]; Homo sapiens, Lymphocyte, 96 h
  IC50: 9000 ± 1000 nM
[5]; Homo sapiens, 96 h
  IC50: 60 ± 30 nM
[6]; Homo sapiens, 96 h
  IC50: 60 ± 30 nM
[7]; Homo sapiens, 96 h
  IC50: 0.3 nM
[8]; Homo sapiens, 96 h
  IC50: 50 ± 20 nM
[9]; Homo sapiens, 96 h
  IC50: 3 ± 2 nM
[10]; Homo sapiens, MOLM-13, 96 h
  IC50: 5 ± 3 nM
[11]; Homo sapiens, 96 h
  IC50: 5000 ± 2000 nM
[12]; Homo sapiens, 96 h
  IC50: 80 nM
[13]
  IC50 values for the normal cells compared with IC50 values for the leukemia cell lines (potential therapeutic window): higher than the IC50 values for the leukemia cell lines
[14]; Homo sapiens, NALM-6, 96 h
  IC50: 6 ± 3 nM
[15]; Homo sapiens, UoC-B1, 96 h
  IC50: 0.08 nM
[16]; Homo sapiens, KOPN-8, 96 h
  IC50: 2 ± 1 nM
